Measured values published in patent US6916933B2, “4-pyridinyl-n-acyl-l-phenylalanines” (Hoffman-La Roche Inc., priority 1999, dated 2005).

Assays:
[1] = biological target: T1, VLA-4 (α4β1 integrin) binding to immobilized VCAM-1 (Homo sapiens, UniProt P05556+P13612); assay: VLA-4/VCAM-1 Screening Assay (solid-phase, dual antibody ELISA); conditions: Ramos cell-derived VLA-4, recombinant human VCAM-1 coated plates, 1 mM MnCl2
T1 construct: followed by 10 μl of Ramos cell-derived VLA-4; endogenous in cells; host or cells: Ramos cells (VLA-4 preparation derived from the cells)
Method: VLA-4/VCAM-1 Screening Assay
VLA-4 antagonist activity, defined as ability to compete for binding to immobilized VCAM-1, was quantitated using a solid-phase, dual antibody ELISA. VLA-4 (α4β1 integrin) bound to VCAM-1 was detected by a complex of anti-integrin β1 antibody: HRP-conjugated anti-mouse IgG: chromogenic substrate (K-Blue). Initially, this entailed coating 96 well plates (Nunc Maxisorp) with recombinant human VCAM-1 (0.4 μg in 100 μl PBS), sealing each plate and then allowing the plates to stand at 4° C. for ^˜18 hr. […] On the day of assay, all plates were washed twice with VCAM Assay Buffer (200 μl/well of 50 mM Tris-HCl, 100 mM NaCl, 1 mM MnCl2, 0.05% Tween 20; pH 7.4). Test compounds were dissolved in 100% DMSO and then diluted 1:20 in VCAM Assay Buffer supplemented with 1 mg/mL BSA (i.e., final DMSO=5%). A series of 1:4 dilutions were performed to achieve a concentration range of 0.005 nM-1.563 μM for each test compound. 100 μl per well of each dilution was added to the VCAM-coated plates, followed by 10 μl of Ramos cell-derived VLA-4. These plates were sequentially mixed on a platform shaker for 1 min, incubated for 2 hr at 37° C., and then washed four times with 200 μl/well VCAM Assay Buffer. 100 μl of mouse anti-human integrin β1 antibody was added to each well (0.6 μg/mL in VCAM Assay Buffer+1 mg/mL BSA) and allowed to incubate for 1 hr at 37° C. At the conclusion of this incubation period, all plates were washed four times with VCAM Assay Buffer (200 μl/well). A corresponding second antibody, HRP-conjugated goat anti-mouse IgG (100 μl per well @ 1:800 dilution in VCAM Assay Buffer+1 mg/mL BSA), was then added to each well, followed by a 1 hr incubation at room temperature and concluded by three washes (200 μl/well) with VCAM Assay Buffer. Color development was initiated by addition of 100 μl K-Blue per well (15 min incubation, room temp) and terminated by addition of 100 μl Red Stop Buffer per well. All plates were then read in a UV/V is spectrophotometer at 650 nM. Results were calculated as % inhibition of total binding (i.e., VLA-4+VCAM-1 in the absence of test compound).
The results are provided in the following Table I (A=IC50<1 nM, B=IC50<10 nM): […]

[2] = biological target: T2, cell-surface VLA-4 (α4β1 integrin) on Ramos cells binding to immobilized VCAM-1 (Homo sapiens, UniProt P05556+P13612); assay: Ramos (VLA-4)/VCAM-1 Cell-Based Screening Assay (cell adhesion); conditions: Calcein-AM labeled Ramos cells, VCAM-1 coated plates
T2 construct: Ramos cells bearing cell-surface VLA-4; endogenous in cells; host or cells: Ramos cells (VLA-4); VCAM-1 partner made in CHO cells
Method: Ramos (VLA-4)/VCAM-1 Cell-Based Screening Assay Protocol
Soluble recombinant human VCAM-1 (mixture of 5- and 7-Ig domain) was purified from CHO cell culture media by immunoaffinity chromatography and maintained in a solution containing 0.1 M Tris-glycine (pH 7.5), 0.1 M NaCl, 5 mM EDTA, 1 mM PMSF, […] NaN3 and 10 μg/mL leupeptin. Calcein-AM was purchased from Molecular Probes Inc.
VLA-4 (α4β1 integrin) antagonist activity, defined as ability to compete with cell-surface VLA-4 for binding to immobilized VCAM-1, was quantitated using a Ramos-VCAM-1 cell adhesion assay. Ramos cells bearing cell-surface VLA-4, were labeled with a fluorescent dye (Calcein-AM) and allowed to bind VCAM-1 in the presence or absence of test compounds. A reduction in fluorescence intensity associated with adherent cells (% inhibition) reflected competitive inhibition of VLA-4 mediated cell adhesion by the test compound.
Initially, this entailed coating 96 well plates (Nunc Maxisorp) with recombinant human VCAM-1 (100 ng in 100 μl PBS), sealing each plate and allowing the plates to stand at 4° C. for ≈18 hr. The VCAM-coated plates were subsequently washed twice with 0.05% Tween-20 in PBS, and then blocked for 1 hr (room temperature) with 200 μl of Blocking Buffer (1% BSA/0.02% thimerosal) to reduce non-specific binding. Following the incubation with Blocking Buffer, plates were inverted, blotted and the remaining buffer aspirated. Each plate was then washed with 300 μl PBS, inverted and the remaining PBS aspirated.
Test compounds were dissolved in 100% DMSO and then diluted 1:25 in VCAM Cell Adhesion Assay Buffer (4 mM CaCl2, 4 mM MgCl2 in 50 mM TRIS-HCl, pH 7.5) (final DMSO=4%). A series of eight 1:4 dilutions were performed for each compound (general concentration range of 1 nM-12,500 nM). 100 μl/well of each dilution was added to the VCAM-coated plates, followed by 100 μl of Ramos cells (200,000 cells/well in 1% BSA/PBS). Plates containing test compounds and Ramos cells were allowed to incubate for 45 min at room temperature, after which 165 μl/well PBS was added. Plates were inverted to remove non-adherent cells, blotted and 300 μL/well PBS added. Plates were again inverted, blotted and the remaining buffer gently aspirated. 100 μl Lysis Buffer (0.1% SDS in 50 mM TRIS-HCl, pH 8.5) was added to each well and agitated for 2 min on a rotary shaking platform. The plates were then read for fluorescence intensity on a Cytofluor 2300 (Millipore) fluorecence measurement system (excitation=485 nm, emission=530 nm).
The results are provided in the following Table II (A=IC50<100 nM, B=IC50<10000 nM, C=IC50<5,000 nM): […]

T1 sequence (P13612 34-1032): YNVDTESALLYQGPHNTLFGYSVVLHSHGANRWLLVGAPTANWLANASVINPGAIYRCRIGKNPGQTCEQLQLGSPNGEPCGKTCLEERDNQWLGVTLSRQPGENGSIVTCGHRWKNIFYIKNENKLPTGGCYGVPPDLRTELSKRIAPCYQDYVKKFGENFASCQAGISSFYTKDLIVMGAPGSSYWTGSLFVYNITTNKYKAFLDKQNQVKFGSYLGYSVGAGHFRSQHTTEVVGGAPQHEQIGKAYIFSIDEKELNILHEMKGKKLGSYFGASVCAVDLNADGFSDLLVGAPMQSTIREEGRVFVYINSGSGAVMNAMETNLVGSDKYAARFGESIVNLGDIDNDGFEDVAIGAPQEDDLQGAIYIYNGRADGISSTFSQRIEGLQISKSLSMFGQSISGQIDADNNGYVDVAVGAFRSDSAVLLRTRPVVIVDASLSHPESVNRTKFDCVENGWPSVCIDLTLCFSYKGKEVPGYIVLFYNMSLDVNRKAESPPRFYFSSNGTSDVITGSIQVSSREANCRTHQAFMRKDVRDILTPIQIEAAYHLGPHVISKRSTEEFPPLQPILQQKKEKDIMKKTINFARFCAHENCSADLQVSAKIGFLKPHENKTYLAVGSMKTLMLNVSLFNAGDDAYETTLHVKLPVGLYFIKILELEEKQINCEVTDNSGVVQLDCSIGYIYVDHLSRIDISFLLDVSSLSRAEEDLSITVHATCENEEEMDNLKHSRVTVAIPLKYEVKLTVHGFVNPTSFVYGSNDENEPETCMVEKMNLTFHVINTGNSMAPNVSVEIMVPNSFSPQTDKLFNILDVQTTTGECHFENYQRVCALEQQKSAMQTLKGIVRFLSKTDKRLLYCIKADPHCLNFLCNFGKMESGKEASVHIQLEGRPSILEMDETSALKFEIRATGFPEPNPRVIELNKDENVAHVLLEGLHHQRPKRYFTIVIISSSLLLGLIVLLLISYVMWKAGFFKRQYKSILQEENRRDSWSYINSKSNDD
T1 sequence (P05556 21-798): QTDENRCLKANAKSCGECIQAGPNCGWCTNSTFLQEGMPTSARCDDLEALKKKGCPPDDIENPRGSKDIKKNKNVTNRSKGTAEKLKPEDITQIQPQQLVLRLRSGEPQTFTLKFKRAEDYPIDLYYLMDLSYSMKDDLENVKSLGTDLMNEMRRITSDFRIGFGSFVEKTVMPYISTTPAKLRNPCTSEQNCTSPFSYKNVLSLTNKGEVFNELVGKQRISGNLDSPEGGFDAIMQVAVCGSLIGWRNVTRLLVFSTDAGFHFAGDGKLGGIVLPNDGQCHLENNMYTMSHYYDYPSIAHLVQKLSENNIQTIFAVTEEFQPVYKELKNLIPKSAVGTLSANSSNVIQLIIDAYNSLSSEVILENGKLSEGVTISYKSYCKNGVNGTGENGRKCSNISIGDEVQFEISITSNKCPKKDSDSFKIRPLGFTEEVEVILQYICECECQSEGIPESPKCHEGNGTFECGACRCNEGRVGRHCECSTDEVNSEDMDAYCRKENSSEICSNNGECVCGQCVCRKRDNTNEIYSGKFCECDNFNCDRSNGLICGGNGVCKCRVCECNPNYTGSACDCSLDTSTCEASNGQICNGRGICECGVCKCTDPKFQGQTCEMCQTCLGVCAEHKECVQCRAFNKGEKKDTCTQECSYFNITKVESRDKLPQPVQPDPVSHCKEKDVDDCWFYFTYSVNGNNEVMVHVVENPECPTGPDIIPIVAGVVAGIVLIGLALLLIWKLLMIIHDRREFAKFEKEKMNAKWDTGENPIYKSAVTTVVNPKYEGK
T2 sequence (P13612 34-1032): as the sequence (P13612 34-1032) above
T2 sequence (P05556 21-798): as the sequence (P05556 21-798) above

IC50 [1] [nM]	IC50 [2] [nM]	SMILES
< 10	< 10000	COCCC1(C(=O)N[C@@H](Cc2ccc(-c3cc(Cl)cn(C)c3=O)cc2)C(=O)O)CCCC1 [Example 10, 4-(5-chloro-1-methyl-2-oxo-3-pyridinyl)-N-[[1-(2-methoxyethyl)cyclopentyl]carbonyl]-L-phenylalanine]
< 1	< 10000	Cc1cccc(Cl)c1C(=O)N[C@@H](Cc1ccc(-c2cc(Cl)cn(C)c2=O)cc1)C(=O)O [Example 8, N-[(2-chloro-6-methylphenyl)carbonyl]-4-(5-chloro-1-methyl-2-oxo-3-pyridinyl)-L-phenylalanine]
< 10	< 5000	Cc1cccc(Cl)c1C(=O)N[C@@H](Cc1ccc(-c2cc(Cl)cn(Cc3ccccc3)c2=O)cc1)C(=O)O [Example 15, 4-(1-Benzyl-5-chloro-2-oxo-3-pyridinyl)-N-[(2-chloro-6-methylphenyl)carbonyl]-L-phenylalanine]
< 1	< 5000	COc1ccc(Br)c(C(=O)N[C@@H](Cc2ccc(-c3cc(Br)cn(C)c3=O)cc2)C(=O)O)c1 [Example 28, N-[(2-bromo-5-methoxyphenyl)carbonyl]-4-(5-bromo-1-methyl-2-oxo-3-pyridinyl)-L-phenylalanine]
< 1	< 10000	COc1ccc(Br)c(C(=O)N[C@@H](Cc2ccc(-c3cccn(C)c3=O)cc2)C(=O)O)c1 [Example 24, N-[(2-bromo-5-methoxyphenyl)carbonyl]-4-(1-methyl-2-oxo-3-pyridinyl)-L-phenylalanine]
< 10	–	COCCC1(C(=O)N[C@@H](Cc2ccc(-c3cc(Cl)cn(Cc4ccccc4)c3=O)cc2)C(=O)O)CCCC1 [Example 17, 4-(1-Benzyl-5-chloro-2-oxo-3-pyridinyl)-N-[[1-(2-methoxyethyl)cyclopentyl]carbonyl]-L-phenylalanine]
